Assay results reported in patent US20230089273A1, “METHODS FOR MATURING AN ARTERIOVENOUS FISTULA” (ALUCENT BIOMEDICAL, INC., priority 2020, published 2023).

Assays:
MMP-9 = experiment: Immunohistochemistry of the AVF: MMP-9; type: in vivo, rat; conditions: 4 weeks
Excerpt: (§1) Based on the results from the morphometric analysis in Example 1, the expression level of several molecular targets associated with AVF maturation failure (i.e., MMP2-MMP-9, Ki-67, and IL6) in the AVF vessels at the 4-week time point were selected for further investigation.
(§2) But excessive fibrosis of the vessel walls due to local inflammation as well as the circumferential arrangement of newly synthesized collagen fibers has shown a positive association with AVF non-maturation (possibly due to decreasing the distensibility of the veins as they go through the arterialization process). MMP-9 is an inflammatory marker, and although MM-2 is usually not considered an inflammatory marker, both metalloproteinases have nearly identical ECM substrates and are important in vascular remodeling. […] Ki-67 is a marker of cell proliferation, which allows assessing the proliferation of vascular wall cells during the AVF development process.

[1] = system: native blood vessels, anastomosis area; experiment: Fluorescence imaging of vessels after NVS and laser treatment; type: in vivo, rat; conditions: vessels harvested immediately after NVS and laser treatment, FIG. 1E
Method: FIGS. 1C-E show photographs of the surgical procedure described in Example 1. (C) AVF surgery area was incubated with NVS solution for 5 min; (D) NVS was activated by laser at 450 nm for 1 min; (E) Fluorescent images of native blood vessels that are harvested immediately after the NVS and laser treatment. […] Femoral AVFs were created in young Wistar male rats by connecting the femoral artery (side) and femoral vein (end) in the same limb. FIGS. 1A-B show the surgical procedure. Immediately after the blood flow was restored and dilatation of the femoral vein occurred, a 10 μl -drop of a composition comprising 2 mg/ml Compound of Formula (I) in PBS was placed at the AVF perivascularly and incubated for 5 minutes, to allow the Compound of Formula (I) to diffuse into the vascular wall. The Compound of Formula (I) was activated by a 1 minute illumination by 450 nm light. A control group of young Wistar male rats received a 10 μl -drop of phosphate buffered saline and the same light activation. The rats' skin was closed immediately after light activation. FIG. 1C is a photograph of the incubation with NVS, applied perivascularly on the anastomosis to allow the compound to diffuse into the vascular tissue. […] FIG. 1E depicts fluorescence images after following light activation, 2 animals were sacrificed and their vessels observed on a fluorescence microscope at 450 nm excitation for NVS.

MMP-2 = experiment: Immunohistochemistry of the AVF: MMP-2; type: in vivo, rat; conditions: 4 weeks
Excerpt: as §1, §2

[2] = system: Femoral AVFs in young Wistar male rats; experiment: Rat femoral AVF model, histology and morphometry (VVG); type: in vivo
Method: Femoral AVFs were created in young Wistar male rats by connecting the femoral artery (side) and femoral vein (end) in the same limb. FIGS. 1A-B show the surgical procedure. Immediately after the blood flow was restored and dilatation of the femoral vein occurred, a 10 μl -drop of a composition comprising 2 mg/ml Compound of Formula (I) in PBS was placed at the AVF perivascularly and incubated for 5 minutes, to allow the Compound of Formula (I) to diffuse into the vascular wall. The Compound of Formula (I) was activated by a 1 minute illumination by 450 nm light. A control group of young Wistar male rats received a 10 μl -drop of phosphate buffered saline and the same light activation. The rats' skin was closed immediately after light activation. FIG. 1C is a photograph of the incubation with NVS, applied perivascularly on the anastomosis to allow the compound to diffuse into the vascular tissue. FIG. 1D is a photograph of the small molecule treated area being exposed to 1 minute of illumination with a 450 -nm light source. FIG. 1E depicts fluorescence images after following light activation, 2 animals were sacrificed and their vessels observed on a fluorescence microscope at 450 nm excitation for NVS.
Rats were euthanized 1 week (early time point, 4 per group) and 4 weeks (later time point, 10 per group) post-AVF creation for histology and morphometry. Verhoeff-Van Gieson (VVG)-stained thin cross-sections were used to measure the area enclosed by internal elastic lamina (IEL), the area of open lumen, and the area of neointimal hyperplasia (NH) by Image J software. Percent open lumen area=open lumen area/IEL-enclosed area×100%. These analyses were done at three locations: the entire AVF, the AVF venous limb, and the AVF arterial limb.
An unpaired, two-tailed t-test was used to determine the statistical significance between the two treatment groups (no-NVS (i.e., control) vs. NVS (treatment with Compound of Formula (I))) in each of the data sets, with α=0.05.

IL-6 = experiment: Immunohistochemistry of the AVF: IL-6; type: in vivo, rat; conditions: 4 weeks
Excerpt: as §1, §2

Ki-67 = experiment: Immunohistochemistry of the AVF: Ki-67; type: in vivo, rat; conditions: entire AVF, 4 weeks
Excerpt: as §1, §2

HUVECs = experiment: Cell death (apoptosis) assay, R&D system kit, HUVEC; type: cell-based; conditions: 0.25, 2.5, 25 μg/ml, 5 min, 450 nm light 1 min, D0-D3, FIG. 12A
Method: (§3) Cell death assays used the cell death detection R&D system kit to detect cell death via apoptosis. Cell density was 1×10^5 per well in a 96-well plate for R&D system kit. HUVECs and HASMCs were treated with NVS in different concentrations (0, 0.25, 2.5, and 25 μg/ml) in serum free medium for 5 minutes in the incubator. After removing NVS, cells were washed with serum free medium once, and the plate was refilled with 200 μl serum free medium in each well. Cells were treated using 450 nm light for 1 minute at room temperature, and then serum free medium was removed and each well was refilled with 200 μl of medium supplemented with 10% serum. At 0, 1, 2, and 3 days post-treatment (D0, D1, D2, and D3), cell death assay was performed according to the manufacturer's protocol. Positive controls were cells incubated with hypertonic buffer (10 mM Tris PH 7.4, 400 mM NaCl, 10 mM MgCl2) at 37° C. for 2 hours.

HASMCs = experiment: Cell death (apoptosis) assay, R&D system kit, HASMC; type: cell-based; conditions: 0.25, 2.5, 25 μg/ml, 5 min, 450 nm light 1 min, D0-D3, FIG. 12B
Method: as §3

[3] = system: collagen fibers in AVF medial layer; experiment: Multiphoton / SHG imaging of collagen fibers in AVF; type: in vivo, rat
Method: Second harmonic generation (SHG) imaging was performed on 5 μm thick formalin-fixed paraffin embedded (FFPE) sections using Leica SP8 Dive with spectral tunable detection. Collagen fiber orientation in the medial layer was analyzed in relationship to the lumen. Each sample was divided into 4 quadrants and the medial layer was examined in each quadrant; the area of examination for each quadrant was 25 μm^2. The same images were used for other collagen morphology using the MIPAR image software analysis.

[4] = week 4, trend, not statistically different

SMILES: NCCOCCOCCNc1ccc2c3c(cccc13)C(=O)N(CCOCCOCCN1C(=O)c3cccc4c(NCCOCCOCCN)ccc(c34)C1=O)C2=O [NVS, 2,2′-((ethane-1,2-diylbis(oxy))bis(ethane-2,1-diyl))bis(6-((2-(2-(2-aminoethoxy)ethoxy)ethyl)amino)-1H-benzo[de]isoquinoline-1,3(2H)-dione)]
- MMP-9 % area stained positive, fold lower than PBS group (MMP-9; arterial limb, p=0.036, FIG. 9D): 2.4 fold
- MMP-9 expression level vs PBS group (MMP-9; entire AVF): trending lower
- MMP-9 % area stained positive, fold lower than PBS group (MMP-9; venous limb, p=0.019, FIG. 9D): 1.8 fold
- penetration into vascular tissue (green fluorescence) [1]: penetration throughout the anastomosis area
- MMP-2 expression level vs PBS group (MMP-2; arterial limb): trending lower
- MMP-2 expression level vs PBS group (MMP-2; entire AVF): trending lower
- MMP-2 area stained positive, fold lower than PBS group (MMP-2; venous limb, p=0.015, FIG. 8C): 1.8 fold
- AVF venous limb % open lumen area, fold larger than control ([2]; 4 weeks, p=0.009, FIG. 6): 1.98 fold
- AVF venous limb open lumen area, fold larger than control ([2]; 4 weeks, p=0.014, FIG. 6): 4.18 fold
- entire AVF % open lumen area, fold larger than control ([2]; 4 weeks, p=0.052, FIG. 5): 1.49 fold
- entire AVF open lumen area, fold larger than control ([2]; 4 weeks, p=0.062, FIG. 5): 2.25 fold
- tolerability of treatment ([2]; 10 μl drop of 2 mg/ml in PBS perivascular, 5 min, 450 nm light 1 min): tolerated the treatment well
- venous diameter vs PBS control ([2]; by 4 weeks after AVF creation surgery): enlarged venous diameter
- all four morphometric parameters (IEL-enclosed area, neointimal lesion area, open lumen area, % area of open lumen) vs PBS ([2]; entire AVF, 1 week): similar
- NH (neointimal hyperplasia) area vs control ([2]; regardless of the locations): without significantly affecting
- AVF open lumen area, effect of treatment ([2]; summary statement): significantly increased
- IL-6 mean gray value, fold lower than PBS group (IL-6; arterial limb, p=0.015, FIG. 10C): 1.6 fold
- IL-6 mean gray value, fold lower than PBS group (IL-6; entire AVF, p=0.027, FIG. 10C): 1.4 fold
- IL-6 expression level vs PBS group (IL-6; venous limb): trending lower
- Ki-67 expression level vs PBS group (Ki-67): similar
- cell death via apoptosis (HUVECs): minimal cell death
- cell death via apoptosis (HASMCs): minimal cell death
- analyzed regions exhibiting favorable collagen orientation for AVF maturation ([3]; AVFs at week 4, not statistically significant vs PBS (25%)): 58%
- collagen shape features (roundness, roughness, eccentricity) vs PBS treated samples [3, 4]: more defined shape features
- overall collagen area vs PBS treated samples [3, 4]: less overall collagen area
